Where “and” joins values, the source holds several entries; their conditions need not be identical. Equal entries are not always repeated. ± gives the uncertainty stated by the source.
Assay: xn = mol fraction of the nth substance listed

CN[C@@H]1[C@H](O[C@H]2[C@H](O[C@H]3[C@H](O)[C@@H](O)[C@H](NC(=N)N)[C@@H](O)[C@@H]3NC(=N)N)O[C@@H](C)[C@]2(O)C=O)O[C@@H](CO)[C@H](O)[C@H]1O.CN[C@@H]1[C@H](O[C@H]2[C@H](O[C@H]3[C@H](O)[C@@H](O)[C@H](NC(=N)N)[C@@H](O)[C@@H]3NC(=N)N)O[C@@H](C)[C@]2(O)C=O)O[C@@H](CO)[C@H](O)[C@H]1O.O=S(=O)(O)O.O=S(=O)(O)O.O=S(=O)(O)O + O
Settings | viscosity
293.15 K, 101.3 kPa, x1 = 0.00018 | 1.053 ± 0.06 mPa·s
293.15 K, 101.3 kPa, x1 = 0.0003604 | 1.102 ± 0.061 mPa·s
293.15 K, 101.3 kPa, x1 = 0.00054 | 1.156 ± 0.061 mPa·s
293.15 K, 101.3 kPa, x1 = 0.0007203 | 1.207 ± 0.061 mPa·s
293.15 K, 101.3 kPa, x1 = 0.0009005 | 1.266 ± 0.061 mPa·s
293.15 K, 101.3 kPa, x1 = 0.00108 | 1.328 ± 0.061 mPa·s
293.15 K, 101.3 kPa, x1 = 0.00126 | 1.393 ± 0.061 mPa·s
293.15 K, 101.3 kPa, x1 = 0.001439 | 1.446 ± 0.061 mPa·s
298.15 K, 101 kPa, x1 = 7.6e-05 | 0.9256 ± 0.019 mPa·s
298.15 K, 101 kPa, x1 = 0.0001 | 0.9434 ± 0.0064 mPa·s
298.15 K, 101 kPa, x1 = 0.00015 | 0.9504 ± 0.02 mPa·s
298.15 K, 101 kPa, x1 = 0.000216 | 0.9744 ± 0.021 mPa·s
298.15 K, 101 kPa, x1 = 0.000286 | 0.9974 ± 0.021 mPa·s
298.15 K, 101 kPa, x1 = 0.0003 | 0.9849 ± 0.0066 mPa·s
298.15 K, 101 kPa, x1 = 0.000358 | 1.02 ± 0.021 mPa·s
298.15 K, 101.3 kPa, x1 = 0.00018 | 0.939 ± 0.06 mPa·s
298.15 K, 101.3 kPa, x1 = 0.0003604 | 0.985 ± 0.06 mPa·s
298.15 K, 101.3 kPa, x1 = 0.00054 | 1.037 ± 0.06 mPa·s
298.15 K, 101.3 kPa, x1 = 0.0007203 | 1.089 ± 0.061 mPa·s
298.15 K, 101.3 kPa, x1 = 0.0009005 | 1.147 ± 0.061 mPa·s
298.15 K, 101.3 kPa, x1 = 0.00108 | 1.192 ± 0.061 mPa·s
298.15 K, 101.3 kPa, x1 = 0.00126 | 1.249 ± 0.061 mPa·s
298.15 K, 101.3 kPa, x1 = 0.001439 | 1.296 ± 0.061 mPa·s
298.15 K, 101.33 kPa, x1 = 7e-07 | 0.8964 ± 0.042 mPa·s
298.15 K, 101.33 kPa, x1 = 9e-07 | 0.8973 ± 0.042 mPa·s
298.15 K, 101.33 kPa, x1 = 1e-06 | 0.8981 ± 0.042 mPa·s and 0.899 ± 0.042 mPa·s and 0.8998 ± 0.042 mPa·s
298.15 K, 101.33 kPa, x1 = 1.8e-06 | 0.9034 ± 0.042 mPa·s
298.15 K, 101.33 kPa, x1 = 2e-06 | 0.9025 ± 0.042 mPa·s and 0.9043 ± 0.042 mPa·s
298.15 K, 101.33 kPa, x1 = 2.2e-06 | 0.9051 ± 0.042 mPa·s
303.15 K, 101 kPa, x1 = 7.6e-05 | 0.8296 ± 0.017 mPa·s
303.15 K, 101 kPa, x1 = 0.0001 | 0.8493 ± 0.0058 mPa·s
303.15 K, 101 kPa, x1 = 0.00015 | 0.8528 ± 0.018 mPa·s
303.15 K, 101 kPa, x1 = 0.000216 | 0.8752 ± 0.018 mPa·s
303.15 K, 101 kPa, x1 = 0.000286 | 0.8971 ± 0.019 mPa·s
303.15 K, 101 kPa, x1 = 0.0003 | 0.8904 ± 0.0061 mPa·s
303.15 K, 101 kPa, x1 = 0.000358 | 0.919 ± 0.019 mPa·s
303.15 K, 101.3 kPa, x1 = 0.00018 | 0.844 ± 0.06 mPa·s
303.15 K, 101.3 kPa, x1 = 0.0003604 | 0.887 ± 0.06 mPa·s
303.15 K, 101.3 kPa, x1 = 0.00054 | 0.936 ± 0.06 mPa·s
303.15 K, 101.3 kPa, x1 = 0.0007203 | 0.981 ± 0.06 mPa·s
303.15 K, 101.3 kPa, x1 = 0.0009005 | 1.035 ± 0.06 mPa·s
303.15 K, 101.3 kPa, x1 = 0.00108 | 1.079 ± 0.061 mPa·s
303.15 K, 101.3 kPa, x1 = 0.00126 | 1.126 ± 0.061 mPa·s
303.15 K, 101.3 kPa, x1 = 0.001439 | 1.171 ± 0.061 mPa·s
303.15 K, 101.33 kPa, x1 = 5e-07 | 0.8016 ± 0.041 mPa·s
303.15 K, 101.33 kPa, x1 = 7e-07 | 0.8024 ± 0.041 mPa·s
303.15 K, 101.33 kPa, x1 = 9e-07 | 0.8032 ± 0.041 mPa·s
303.15 K, 101.33 kPa, x1 = 1e-06 | 0.804 ± 0.041 mPa·s and 0.8048 ± 0.041 mPa·s and 0.8056 ± 0.041 mPa·s
303.15 K, 101.33 kPa, x1 = 1.8e-06 | 0.8089 ± 0.041 mPa·s
303.15 K, 101.33 kPa, x1 = 2e-06 | 0.8064 ± 0.041 mPa·s and 0.8097 ± 0.041 mPa·s
303.15 K, 101.33 kPa, x1 = 2.2e-06 | 0.8105 ± 0.041 mPa·s
305.15 K, 101 kPa, x1 = 0.0002 | 0.826 ± 0.0053 mPa·s
305.15 K, 101 kPa, x1 = 0.0004 | 0.8609 ± 0.0055 mPa·s
308.15 K, 101 kPa, x1 = 7.6e-05 | 0.7487 ± 0.016 mPa·s
308.15 K, 101 kPa, x1 = 0.0001 | 0.7667 ± 0.0053 mPa·s
308.15 K, 101 kPa, x1 = 0.00015 | 0.771 ± 0.016 mPa·s
308.15 K, 101 kPa, x1 = 0.000216 | 0.7923 ± 0.017 mPa·s
308.15 K, 101 kPa, x1 = 0.000286 | 0.8134 ± 0.017 mPa·s
308.15 K, 101 kPa, x1 = 0.0003 | 0.8077 ± 0.0056 mPa·s
308.15 K, 101 kPa, x1 = 0.000358 | 0.834 ± 0.018 mPa·s
308.15 K, 101.3 kPa, x1 = 0.00018 | 0.764 ± 0.06 mPa·s
308.15 K, 101.3 kPa, x1 = 0.0003604 | 0.806 ± 0.06 mPa·s
308.15 K, 101.3 kPa, x1 = 0.00054 | 0.848 ± 0.06 mPa·s
308.15 K, 101.3 kPa, x1 = 0.0007203 | 0.893 ± 0.06 mPa·s
308.15 K, 101.3 kPa, x1 = 0.0009005 | 0.943 ± 0.06 mPa·s
308.15 K, 101.3 kPa, x1 = 0.00108 | 0.984 ± 0.06 mPa·s
308.15 K, 101.3 kPa, x1 = 0.00126 | 1.026 ± 0.06 mPa·s
308.15 K, 101.3 kPa, x1 = 0.001439 | 1.072 ± 0.061 mPa·s
310.15 K, 101 kPa, x1 = 0.0002 | 0.7448 ± 0.0049 mPa·s
310.15 K, 101 kPa, x1 = 0.0004 | 0.7702 ± 0.005 mPa·s
313.15 K, 101 kPa, x1 = 7.6e-05 | 0.6801 ± 0.014 mPa·s
313.15 K, 101 kPa, x1 = 0.0001 | 0.6932 ± 0.0049 mPa·s
313.15 K, 101 kPa, x1 = 0.00015 | 0.7016 ± 0.015 mPa·s
313.15 K, 101 kPa, x1 = 0.000216 | 0.722 ± 0.015 mPa·s
313.15 K, 101 kPa, x1 = 0.000286 | 0.7425 ± 0.016 mPa·s
313.15 K, 101 kPa, x1 = 0.0003 | 0.7345 ± 0.0052 mPa·s
313.15 K, 101 kPa, x1 = 0.000358 | 0.7623 ± 0.016 mPa·s
313.15 K, 101.3 kPa, x1 = 0.00018 | 0.698 ± 0.06 mPa·s
313.15 K, 101.3 kPa, x1 = 0.0003604 | 0.739 ± 0.06 mPa·s
313.15 K, 101.3 kPa, x1 = 0.00054 | 0.784 ± 0.06 mPa·s
313.15 K, 101.3 kPa, x1 = 0.0007203 | 0.822 ± 0.06 mPa·s
313.15 K, 101.3 kPa, x1 = 0.0009005 | 0.866 ± 0.06 mPa·s
313.15 K, 101.3 kPa, x1 = 0.00108 | 0.904 ± 0.06 mPa·s
313.15 K, 101.3 kPa, x1 = 0.00126 | 0.946 ± 0.06 mPa·s
313.15 K, 101.3 kPa, x1 = 0.001439 | 0.989 ± 0.06 mPa·s
315.15 K, 101 kPa, x1 = 0.0002 | 0.6863 ± 0.0046 mPa·s
315.15 K, 101 kPa, x1 = 0.0004 | 0.7114 ± 0.0047 mPa·s
318.15 K, 101 kPa, x1 = 7.6e-05 | 0.6228 ± 0.013 mPa·s
318.15 K, 101 kPa, x1 = 0.0001 | 0.6275 ± 0.0046 mPa·s
318.15 K, 101 kPa, x1 = 0.00015 | 0.6432 ± 0.014 mPa·s
318.15 K, 101 kPa, x1 = 0.000216 | 0.6631 ± 0.014 mPa·s
318.15 K, 101 kPa, x1 = 0.000286 | 0.683 ± 0.014 mPa·s
318.15 K, 101 kPa, x1 = 0.0003 | 0.6686 ± 0.0048 mPa·s
318.15 K, 101 kPa, x1 = 0.000358 | 0.7027 ± 0.015 mPa·s

Reference: the CheMixHub viscosity set
